Data from ChEMBL document CHEMBL1201862, “PubChem BioAssay data set” (2004).
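Five concentrations, 48 hours, 96-well plates. Here, GI50 denotes the concentration required for 50% inhibition of growth.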 The source made the active and inactive calls. Cut-off read from the data, not from the text of the source: active = GI50 up to about 1.1 µM and inactive = higher. Residues, ends and D or L forms follow the SMILES beside them.

What was measured:
Assay in all cases: inhibition of tumour cell growth, NCI panel, 48 h
[1] = tested on: U-251
[2] = tested on: ACHN
[3] = tested on: SK-MEL-5
[4] = tested on: NCI-H460
[5] = tested on: OVCAR-3
[6] = tested on: M14
[7] = tested on: NCI-H23
[8] = tested on: SF-268
[9] = tested on: SF-539
[10] = tested on: Malme-3M
[11] = tested on: SW-620
[12] = tested on: OVCAR-8
[13] = tested on: A498
[14] = tested on: SK-MEL-2
[15] = tested on: HOP-62
[16] = tested on: HOP-92
[17] = tested on: PC-3
[18] = tested on: HL-60
[19] = tested on: RPMI-8226

Structure (SMILES) | GI50 [1] | GI50 [2] | GI50 [3] | GI50 [4] | GI50 [5] | GI50 [6] | GI50 [7] | GI50 [8] | GI50 [9] | GI50 [10] | GI50 [11] | GI50 [12] | GI50 [13] | GI50 [14] | GI50 [15] | GI50 [16] | GI50 [17] | GI50 [18] | GI50 [19]
CCN(CC)C(=S)SS(=O)(=O)c1ccc(C)cc1 | 23.3 µM (inactive) | 34.7 µM (inactive) | 0.644 µM (active) | 27.2 µM (inactive) | 39.6 µM (inactive) | 13.9 µM (inactive) | 42.4 µM (inactive) | 55.2 µM (inactive) | 16.9 µM (inactive) | 20.4 µM (inactive) | 19.9 µM (inactive) | 19.5 µM (inactive) | > 100 µM (inactive) | 50.4 µM (inactive) | 23.2 µM (inactive) | – | – | – | –
CCOc1ccccc1/C=C1\NC(=O)N(/C=C2\C(=O)Oc3ccccc3C2=O)C1=O | 47 µM (inactive) | 50.6 µM (inactive) | 23.9 µM (inactive) | 39.4 µM (inactive) | 30.8 µM (inactive) | 51.4 µM (inactive) | 31.3 µM (inactive) | > 100 µM (inactive) | 78.5 µM (inactive) | – | 51.5 µM (inactive) | 80.9 µM (inactive) | – | 45.9 µM (inactive) | 53.1 µM (inactive) | 21 µM (inactive) | 42.5 µM (inactive) | 20.5 µM (inactive) | –
Cc1ccc2c(c1C)CC1(Cc3c(C)ccc(C)c3C1=O)C2=O (stereo not drawn) | > 100 µM (inactive) | > 100 µM (inactive) | > 100 µM (inactive) | > 100 µM (inactive) | – | > 100 µM (inactive) | > 100 µM (inactive) | > 100 µM (inactive) | > 100 µM (inactive) | > 100 µM (inactive) | > 100 µM (inactive) | > 100 µM (inactive) | > 100 µM (inactive) | – | – | > 100 µM (inactive) | – | > 100 µM (inactive) | > 100 µM (inactive)
COc1cc(/C=C2/C(=O)N/C(=N\C(C)=O)N2C)ccc1OC(C)=O | > 100 µM (inactive) | > 100 µM (inactive) | > 100 µM (inactive) | > 100 µM (inactive) | > 100 µM (inactive) | > 100 µM (inactive) | > 100 µM (inactive) | – | > 100 µM (inactive) | – | > 100 µM (inactive) | > 100 µM (inactive) | – | > 100 µM (inactive) | > 100 µM (inactive) | > 100 µM (inactive) | > 100 µM (inactive) | 53.3 µM (inactive) | –
C=CCNC1=C2C[C@@H](C)C[C@@H](OC)[C@H](OC(=O)CCCCN)[C@H](C)/C=C(\C)[C@@H](OC(N)=O)[C@H](OC)/C=C\C=C(/C)C(=O)NC(=CC1=O)C2=O | 10.9 µM (inactive) | 19.5 µM (inactive) | 11.6 µM (inactive) | 11.6 µM (inactive) | 3.22 µM (inactive) | 13.4 µM (inactive) | 14.6 µM (inactive) | 16.9 µM (inactive) | – | 6.71 µM (inactive) | 6.18 µM (inactive) | 19.4 µM (inactive) | 12.9 µM (inactive) | 3.72 µM (inactive) | 5.83 µM (inactive) | 18.8 µM (inactive) | – | 11.7 µM (inactive) | 9.04 µM (inactive)
CC1(C)OC2[C@@H](CO[C@@]3([C@H]4OC(C)(C)O[C@@H]4CO)OC(C)(C)O[C@@H]23)O1 (stereo partly drawn) | > 100 µM (inactive) | > 100 µM (inactive) | > 100 µM (inactive) | > 100 µM (inactive) | > 100 µM (inactive) | > 100 µM (inactive) | > 100 µM (inactive) | > 100 µM (inactive) | – | > 100 µM (inactive) | > 100 µM (inactive) | > 100 µM (inactive) | – | > 100 µM (inactive) | > 100 µM (inactive) | > 100 µM (inactive) | > 100 µM (inactive) | > 100 µM (inactive) | > 100 µM (inactive)
COc1nc(=O)n(C2CC(N=[N+]=[N-])C(CO)O2)cc1C (stereo not drawn) | > 100 µM (inactive) | > 100 µM (inactive) | > 100 µM (inactive) | > 100 µM (inactive) | > 100 µM (inactive) | > 100 µM (inactive) | > 100 µM (inactive) | > 100 µM (inactive) | > 100 µM (inactive) | > 100 µM (inactive) | > 100 µM (inactive) | > 100 µM (inactive) | – | > 100 µM (inactive) | > 100 µM (inactive) | > 100 µM (inactive) | > 100 µM (inactive) | > 100 µM (inactive) | –
CCN(CC)CCCC(C)Nc1ccnc(/C=C/c2ccc(Cl)cc2)c1 (stereo not drawn) | 1.66 µM (inactive) | 3.32 µM (inactive) | 3.23 µM (inactive) | 2.69 µM (inactive) | 1.63 µM (inactive) | 1.11 µM (active) | 10.1 µM (inactive) | 3.06 µM (inactive) | 1.67 µM (inactive) | 1.21 µM (inactive) | 1.54 µM (inactive) | 3.43 µM (inactive) | – | 2.11 µM (inactive) | 1.84 µM (inactive) | 1.26 µM (inactive) | 1.56 µM (inactive) | 2.07 µM (inactive) | 1.72 µM (inactive)
O=CNc1ccc(S(=O)(=O)c2ccc(NC=O)cc2)cc1 | > 100 µM (inactive) | > 100 µM (inactive) | > 100 µM (inactive) | > 100 µM (inactive) | > 100 µM (inactive) | > 100 µM (inactive) | > 100 µM (inactive) | > 100 µM (inactive) | > 100 µM (inactive) | > 100 µM (inactive) | > 100 µM (inactive) | > 100 µM (inactive) | – | > 100 µM (inactive) | > 100 µM (inactive) | > 100 µM (inactive) | > 100 µM (inactive) | > 100 µM (inactive) | > 100 µM (inactive)
O=C(CBr)c1ccc2cc(Br)c3ccccc3c2c1 | 46.3 µM (inactive) | 52.1 µM (inactive) | 14.3 µM (inactive) | 23 µM (inactive) | 20.6 µM (inactive) | 25.1 µM (inactive) | 14.7 µM (inactive) | 20.3 µM (inactive) | 20.9 µM (inactive) | 15.9 µM (inactive) | 25.2 µM (inactive) | 24.2 µM (inactive) | – | 20.6 µM (inactive) | 37.4 µM (inactive) | 20.9 µM (inactive) | 21 µM (inactive) | 25.9 µM (inactive) | 20.3 µM (inactive)
C=C1C(=O)OC2C3C(=C)[C@@H](OC(C)=O)CC3C(C)=CC(OC(=O)C(C)(OC(C)=O)C(C)OC(C)=O)[C@@H]12 (stereo partly drawn) | 16.5 µM (inactive) | 13.7 µM (inactive) | 12.6 µM (inactive) | 23.6 µM (inactive) | 13.2 µM (inactive) | 14.6 µM (inactive) | 18.6 µM (inactive) | 21.7 µM (inactive) | 17.4 µM (inactive) | 13.6 µM (inactive) | 9.33 µM (inactive) | 30.1 µM (inactive) | – | 12.3 µM (inactive) | 37.4 µM (inactive) | – | 17.3 µM (inactive) | 2.52 µM (inactive) | 6.55 µM (inactive)
C[n+]1ccc(/C2=C3\C=CC(=N3)/C(c3cc[n+](C)cc3)=c3/cc/c([nH]3)=C(\c3cc[n+](C)cc3)C3=N/C(=C(/c4cc[n+](C)cc4)C4C=CC2N4)C=C3)cc1 | 3.93 µM (inactive) | > 100 µM (inactive) | 43 µM (inactive) | 32.9 µM (inactive) | > 95.5 µM (inactive) | > 100 µM (inactive) | > 100 µM (inactive) | > 100 µM (inactive) | > 93.5 µM (inactive) | > 100 µM (inactive) | > 100 µM (inactive) | > 100 µM (inactive) | > 100 µM (inactive) | – | > 100 µM (inactive) | > 100 µM (inactive) | – | > 100 µM (inactive) | > 48.2 µM (inactive)
COC(=O)c1cc(C(=CCC[C@H]2CC[C@@]3(C)C(CCC4C3CC[C@@]3(C)C4CC[C@@H]3C(C)CCCC(C)C)C2)c2cc(Cl)c(O)c(C(=O)OC)c2)cc(Cl)c1O (stereo partly drawn) | > 10 µM (inactive) | > 10 µM (inactive) | > 10 µM (inactive) | > 10 µM (inactive) | > 10 µM (inactive) | > 10 µM (inactive) | > 10 µM (inactive) | > 10 µM (inactive) | > 10 µM (inactive) | > 10 µM (inactive) | > 10 µM (inactive) | > 10 µM (inactive) | – | > 10 µM (inactive) | > 10 µM (inactive) | > 10 µM (inactive) | > 10 µM (inactive) | > 10 µM (inactive) | > 10 µM (inactive)
c1nc(OCC2CCCCC2)c2nc[nH]c2n1 | 58.3 µM (inactive) | 10.1 µM (inactive) | 26.1 µM (inactive) | 72.6 µM (inactive) | 53.1 µM (inactive) | 59.4 µM (inactive) | 45.3 µM (inactive) | 44.5 µM (inactive) | 36.1 µM (inactive) | 70.5 µM (inactive) | 59.6 µM (inactive) | 47.2 µM (inactive) | – | 40.6 µM (inactive) | 55.7 µM (inactive) | 66.7 µM (inactive) | 85.9 µM (inactive) | > 100 µM (inactive) | 15.6 µM (inactive)
CCC(C)C(NC(=O)C(CCCCN)NC(=O)C(NC(=O)C(CCC(N)=O)NC(=O)C(N)CCCNC(=N)N)C(C)CC)C(=O)NC(Cc1c[nH]c2ccccc12)C(=O)NC(Cc1ccccc1)C(=O)NC(CCC(N)=O)C(=O)NC(CC(N)=O)C(=O)NC(CCCNC(=N)N)C(=O)NC(CCCNC(=N)N)C(=O)NC(CCSC)C(=O)NC(CCCCN)C(=O)NC(Cc1c[nH]c2ccccc12)C(=O)NC(CCCCN)C(=O)NC(CCCCN)C(=O)N1CCCC1C(=O)NC(C)C(=O)NC(CCCCN)C(=O)NC(CCCNC(=N)N)C(=O)NC(CCCCN)C(=O)NC(CC(C)C)C(=O)NC(Cc1ccccc1)C(=O)NCC(=O)O (stereo not drawn) (H-RQIKIWFQNRRMKWKKPAKRKLFG-OH; configuration not given here) | 17 µM (inactive) | > 25 µM (inactive) | 16.5 µM (inactive) | 24.7 µM (inactive) | > 25 µM (inactive) | 12.1 µM (inactive) | > 25 µM (inactive) | 15.9 µM (inactive) | – | 6.75 µM (inactive) | > 25 µM (inactive) | > 25 µM (inactive) | – | > 25 µM (inactive) | > 25 µM (inactive) | 9.64 µM (inactive) | > 25 µM (inactive) | 6.93 µM (inactive) | 5.93 µM (inactive)
